The nature of data set [1]: Release profile (cumulative fraction released; USP II Paddle system, water). The following applies: memantine-galantamine combination. It counts as physicochemical. From the text:
The cumulative fraction is the amount of drug substance released from the formulation matrix to the serum or gut environment (e.g., U.S. Pat. No. 4,839,177) or as measured with a USP II Paddle system using water as the dissolution medium.

For data set [2] the following is noted: cited from earlier work; for Human PK T½ / Tmax: humans.
For data set [3] the following is noted: humans; cited from earlier work.

`COc1ccc2c3c1O[C@H]1C[C@@H](O)C=C[C@@]31CCN(C)C2` [REMINYL ®/Galantamine]: the cum. fraction in data set [1] (Time 1) stood at 0.2; in data set [1] (Time 2) it was 0.3; in data set [1] (Time 4), 0.4; in data set [1] (Time 8), 0.5; in data set [1] (Time 12), 0.6; in data set [1] (Time 16), 0.7. The values for the cum. fraction in data set [1] (Time 20) and in data set [1] (Time 24) were 0.8 and 1.0, respectively. For the same compound, the T½ entry in data set [2] (head of Table 4) is “T½ = 7 hrs”. Moreover, the “Human PK T½” value in data set [2] is 7 h. In addition, in data set [2], the Tmax (as a rule, the time at which the peak concentration occurs) is 1 to 2.5 h.
Take `CC12CC3CC(C)(C1)CC(N)(C3)C2` [Memantine, 1-amino-3,5-dimethyladamantane]: the cum. fraction came to 0.2 in data set [1] (Time 1); 0.3 in data set [1] (Time 2); 0.4 in data set [1] (Time 4); 0.5 in data set [1] (Time 8); 0.6 in data set [1] (Time 12); 0.7 in data set [1] (Time 16). Besides, the cum. fraction in data set [1] (Time 20) is on record as 0.8; in data set [1] (Time 24) it was 0.9.
`CCN(C)C(=O)Oc1cccc([C@H](C)N(C)C)c1` [EXELON ®/Rivastigmine]: in data set [3], the “Main Dose-Dependent Adverse Event” value is “Nausea, vomiting”. The time to peak (Tmax) in data set [2] was 1 to 2.5 h.
As to `CC(N)C12CC3CC(CC(C3)C1)C2` (stereo not drawn) [Rimantadine, 1-(1-aminoethyl)adamantane], the “Dose Dependent Tox” value in data set [3] is “Insomnia”.
Turning to `C/C=C1\[C@H]2C=C(C)C[C@]1(N)c1ccc(=O)[nH]c1C2` [HUPERZINE-A], in data set [2], the “Human PK T½” value is 4.8 h and the “Tmax” value was 1.3 h.

(Values after patent US8338486B2, “Methods for the treatment of CNS-related conditions” (Adamas Pharmaceuticals, Inc., priority 2004, dated 2012).)
